Inconclusive results are not listed. Calls of active or inactive are those of the source. No rule for the calls is given here.
Each compound was assayed against Tyrosine-protein phosphatase YopH [Yersinia enterocolitica] (assay: potency against Yersinia YopH phosphatase – biochemical, 10-point dose range, dose response (AID 1261)). Settings: YopH phosphatase enzymatic assay, IC50, 3 runs.

| Compound | IC50 |
| --- | --- |
| CCN(CC)c1ccc(/C=N/Nc2ccc(C)cc2)c(O)c1 | > 50 µM (inactive) |
| COc1ccc(NC2=C(NCCO)C(=O)c3ccccc3C2=O)cc1 | > 50 µM (inactive) |
| C=CCOC(=O)C1=C(C)NC2(O)c3ccccc3C(=O)C12O (stereo not given) | > 50 µM (inactive) |
| CCN(CC)c1ccc(/C=N/Nc2cccc(C)c2)c(O)c1 | > 50 µM (inactive) |
| CCCCOC(=O)C1=C(C)NC2(O)c3ccccc3C(=O)C12O (stereo not given) | > 50 µM (inactive) |
| COc1cc(C2C(C(=O)OC(C)C)=C(C)Nc3[nH]c(=O)[nH]c(=O)c32)ccc1O (stereo not given) | > 50 µM (inactive) |
| CCN(CC)c1ccc(/C=N/Nc2ccccc2)c(O)c1 | > 50 µM (inactive) |
| CC1=C(C(=O)OCC(C)C)C2(O)C(=O)c3ccccc3C2(O)N1 (stereo not given) | > 50 µM (inactive) |
| CCOC(=O)/C(N=Nc1ccc(F)cc1)=C(/O)c1ccc([N+](=O)[O-])cc1 | > 50 µM (inactive) |
| CSc1nsc(/C=C/Nc2ccc(Cl)cc2)c1C#N | > 50 µM (inactive) |

Same assay, conditions: YopH phosphatase enzymatic assay, IC50, 3 runs; inhibition; at 50 µM; stronger effect = higher value

| Compound | inhibition [%] |
| --- | --- |
| CCN(CC)c1ccc(/C=N/Nc2ccc(C)cc2)c(O)c1 | 9.55 |
| CCN(CC)c1ccc(C=Nc2ccccc2)c(O)c1 | 17.6 |
| C#CCn1cc(C=C2C(=O)c3ccccc3C2=O)c2ccccc21 | 11.1 |
| CCC(=O)N1Cc2ccccc2-c2ccccc2C1=O | -4.86 |
| COc1ccc(NC2=C(NCCO)C(=O)c3ccccc3C2=O)cc1 | 20.2 |
| CCOC(=O)C(NC(=O)Nc1ccccc1)(OCC)C(F)(F)F (stereo not given) | 2.58 |
| O=C(CN1C(=O)C2CC=CCC2C1=O)Nc1nnc(SCc2ccc(Cl)cc2)s1 (stereo not given) | -4.26 |
| Cc1csc(N2CCc3ccccc32)n1 | -9.56 |
| CCOc1ccc(-c2nnc3ccc(SCC(=O)Nc4nc5ccccc5s4)nn23)cc1 | -11.8 |
| O=C(O[C@@H]1OC2COC(=O)c3cc(O)c(O)c(O)c3-c3c(cc(O)c(O)c3O)C(=O)O[C@@H]([C@H]1O)[C@@H]2O)c1cc(O)c(O)c(O)c1 | -0.367 |
| S=c1[nH]nc(-c2ccccc2)n1/N=C/C=C/c1ccco1 | 3.47 |
| O=c1[nH]c(Nc2ccc(F)cc2)cc2ccccc12 | 28.2 |
| CCN(CC)c1ccc(NC(=O)c2cccc(OC)c2)c(C)c1 | -4.28 |
| Cc1onc(-c2ccccc2)c1C(=O)NCc1ccccn1 | -11.6 |
| Nc1cccc(C2=Nc3cccc4cccc(c34)N2)c1 | 75.9 |
| Nc1nnc2c(n1)CCCC2 | 23 |
| [O-]/[N+](=C\c1ccc(F)cc1)c1ccccc1 | 2.44 |
| CCc1cc[n+](C2=C([O-])c3ccccc3C(=O)/C2=N\S(=O)(=O)c2cccs2)cc1 | 2.75 |
| CCN(CC)CCCNC(=O)Cc1c(C(=O)O)n(C)c2ccccc12 | -8.3 |
| CCOC(=O)Oc1ccc2oc(=O)cc(C)c2c1 | -13.7 |
| COc1ccccc1N1C(C)=CC(=C(C#N)c2nc3ccccc3s2)C=C1C | -2.35 |
| N#Cc1ccccc1Cn1cc(C#N)c2ccccc21 | -11.8 |
| COc1ccc(-n2nc3ccccc3n2)cc1 | -5.75 |
| CC1CCN(CCC(=O)N2CCCc3c2c(=O)oc2ccc(O)cc32)CC1 | -1.24 |
| O=C(c1ccc(F)cc1)[C@@H]1[C@@H](C(=O)c2ccccc2)[C@@]2(C(=O)Nc3ccccc32)[C@H]2c3ccccc3C=CN12 | 13.8 |
| COc1ccc(CN2C(=O)c3ccccc3C(/C=N\OCc3ccc(F)cc3)C2=O)cc1 (stereo not given) | 3.35 |
| O=C(Nc1nnc(C(F)(F)F)s1)c1ccc(N2C(=O)C3C4C=CC(C4)C3C2=O)cc1 (stereo not given) | -8.43 |

| Compound | inhibition [%] |
| --- | --- |
| CC(C(=O)N1CCCc2c1c(=O)oc1ccc(O)cc21)N1CCc2ccccc2C1 (stereo not given) | 0.0785 |
| COCCCNC(=O)CC(NS(=O)(=O)c1ccc(F)cc1)c1ccc(OC)cc1 (stereo not given) | -10.7 |
| O=S(=O)(c1ccc2ccccc2c1)N1CCC(c2nc(-c3ccncc3)no2)CC1 | -14.8 |
| N#Cc1c(N)n(CCNC(=O)c2cccs2)c2nc3ccccc3nc12 | -16.9 |
| C=CCOC(=O)C1=C(C)NC2(O)c3ccccc3C(=O)C12O (stereo not given) | 24.6 |
| O=C(/C=C/c1ccc([N+](=O)[O-])cc1)OCC(=O)N1c2ccccc2Sc2ccccc21 | -1.56 |
| COc1ccc2c(c1)c(=O)cc(C)n2CC(=O)NCc1ccco1 | -3.64 |
| CCN(CC)c1ccc(/C=N/Nc2cccc(C)c2)c(O)c1 | 9.95 |
| CN(CC(=O)N1CCCc2c1c(=O)oc1ccc(O)cc21)Cc1ccccc1 | -1.35 |
| COc1ccccc1-c1c(C)nn2c(N3CCCCCC3)cc(C)nc12 | -1.28 |
| Cc1ccc2c(C)[nH]c(=O)cc2c1 | 0.968 |
| O=C1CCC(=O)N1CC(=O)N1c2ccccc2Sc2ccccc21 | -12.5 |
| Cc1ccc(N2C(=O)[C@@H]3[C@H](C2=O)C2c4ccccc4C=CN2[C@@H]3C(=O)c2ccco2)cc1 (stereo not given in full) | -1.17 |
| CCCCOC(=O)C1=C(C)NC2(O)c3ccccc3C(=O)C12O (stereo not given) | 36.9 |
| CCCCCCCC1=CC2=CC(=O)C(C)(OC(C)=O)C(=O)C2=CN1CCc1ccccc1 (stereo not given) | -7.04 |
| CN(C1=C(NC(=O)c2ccccc2)C(=O)c2ccccc2C1=O)C1CCS(=O)(=O)C1 (stereo not given) | 27 |
| O=C(O)c1ccc(NC2=C(N3CCOCC3)C(=O)c3ccccc3C2=O)cc1 | -0.899 |
| CCn1c(-c2cc(OC)c(OC)c(OC)c2)n[nH]c1=S | -24 |
| COC(=O)CSc1nnc(CNC(=O)c2cccc(C)c2)n1-c1ccccc1OC | -14.7 |
| COc1ccc(N2C(=O)[C@@H]3[C@H](C2=O)[C@H]2c4ccccc4C=CN2[C@@H]3C(C)=O)cc1 | -6.89 |
| COc1cc(C2C(C(=O)OC(C)C)=C(C)Nc3[nH]c(=O)[nH]c(=O)c32)ccc1O (stereo not given) | 4.55 |
| CCN1CCC2(CC1)N=C(c1ccc(F)cc1)C(=S)N2C(=O)c1ccc(C)cc1 | 28.6 |
| O=C1C(Nc2ccccc2)=C(N2CCCCC2)C(=O)c2ccccc21 | 41.9 |
| COc1cccc(-c2nc(CS(=O)(=O)CC(=O)N3CCc4ccccc4C3)c(C)o2)c1 | -0.295 |
| Cc1cccc(OCCCCc2c(C)n[nH]c2C)c1 | -10.5 |
| Cc1c(Br)cc(C(=O)OC2CCN(C)CC2)c(C)c1C | 0.211 |
| CC(=O)c1ccc(NC2=C(N3CCOCC3)C(=O)c3ccccc3C2=O)cc1 | 30.4 |

| Compound | inhibition [%] |
| --- | --- |
| CCO/C=C1\C(=O)N(c2ccccc2)C(=O)c2ccccc21 | 39.1 |
| CC1(C)COC(/C=C/c2ccc([N+](=O)[O-])cc2)=N1 | -8.03 |
| N[C@@H](C(=O)N[C@@H]1C(=O)N2C(C(=O)O)=C(Cl)CS[C@H]12)c1ccccc1 | -8.78 |
| CCOc1ccc(C(=S)N2CCOCC2)cc1OC | -1.37 |
| CN(C(=O)COc1ccc(C(C)(C)C)cc1)C1CCS(=O)(=O)C1 (stereo not given) | -19.1 |
| O=C(NN=c1c(=O)c2ccccc2c1=O)c1ccccc1 | -14.5 |
| COc1ccc(NC(=O)/C(=C/c2cccnc2)NC(=O)c2cccs2)cc1 | -16.6 |
| CCN(CC)c1ccc(/C=N/Nc2ccccc2)c(O)c1 | -13.5 |
| CC1=C(C(=O)OCC(C)C)C2(O)C(=O)c3ccccc3C2(O)N1 (stereo not given) | 31.7 |
| CCc1ccc(S(=O)(=O)/N=C2/C=C(Sc3ncn[nH]3)C(=O)c3ccccc32)cc1 | 17.2 |
| CCOC(=O)N1CCN(C(=O)Cn2c(C)cc3ccccc3c2=O)CC1 | -14.1 |
| COc1ccc(/C=N/NC(=O)C(C)n2cnc3ccccc3c2=O)cc1OC (stereo not given) | 8.51 |
| Cc1ccc(C(C[N+](=O)[O-])c2c(C)[nH]n(-c3ccccc3)c2=O)cc1 (stereo not given) | -20.8 |
| Oc1ccc(C=Nc2ccc3ncccc3c2)c(O)c1 | -3.62 |
| O=C(c1cccs1)N1CCN=C1SCc1cccnc1 | -11.7 |
| CCOC(=O)/C(N=Nc1ccc(F)cc1)=C(/O)c1ccc([N+](=O)[O-])cc1 | -5.66 |
| CC(=O)OCCCNc1cc(SCc2ccco2)c2nonc2c1[N+](=O)[O-] | -2.61 |
| CCOC(=O)c1oc2ccc(Br)cc2c1CSc1nnc(C)s1 | -12.1 |
| COC(=O)N(NC(=O)C(O)(CCC(C)C)CCC(C)C)c1ccccc1 | 4.94 |
| C=CCc1cccc2cc(C(=O)Nc3ccc(S(=O)(=O)Nc4nnc(CC)s4)cc3)c(=O)oc12 | 23.8 |
| COc1ccc(-c2nnc(SCC(=O)c3cccs3)o2)c(OC)c1 | -10.6 |
| CCN1CCN(CCCOc2ccc(-c3ccccc3)cc2)CC1 | -0.391 |
| Cc1cc(C)nc(SCC(=O)Oc2ccc3oc(=O)cc(C)c3c2)n1 | -24.4 |
| O=C(/C=C/c1ccc(O)cc1)c1ccc(NC2=C(N3CCCCC3)C(=O)c3ccccc3C2=O)cc1 | 18.9 |
| CN1C(=O)C(Cc2cccc3ccccc23)C(=O)N(C)C1=O | 20.5 |
| CCCCn1c(N)c(NCCC(C)C)c(=O)[nH]c1=O | 33 |
| CC1=CC(=C(C#N)c2nc3ccccc3s2)C=C(C)N1c1ccc(F)cc1 | 8.34 |

| Compound | inhibition [%] |
| --- | --- |
| COC(=O)C1C(C(C)C)N(c2ccccc2)OC1(C)O (stereo not given) | -0.943 |
| CC1=CC(=C(C#N)c2nc3ccccc3s2)C=C(C)N1c1ccc(F)cc1F | 1.55 |
| CCC(=O)Nc1nonc1-c1nc2ccccc2n1CCC(C)C | -8.12 |
| Cc1noc(NS(=O)(=O)c2ccc(NC(=O)CCCOc3ccc(Cl)cc3Cl)cc2)c1C | -12.1 |
| COCCCNC(=O)C1CCCN(C(=O)Nc2ccc(OC)cc2)C1 (stereo not given) | -19.6 |
| c1ccc(-c2csc3ncnc(NCCCN4CCOCC4)c23)cc1 | -1.85 |
| CCOc1cc(CNc2ccc(N3CCCC3)cc2)cc(Cl)c1OC | -6.54 |
| Cc1ccc(CSCCNC(=O)CN2C(=O)c3ccccc3S2(=O)=O)cc1 | -6.7 |
| O=C(COC(=O)c1ccc([N+](=O)[O-])s1)Nc1ccccc1 | -23.9 |
| CC(C)N(C(=O)COc1ccc(Br)cc1Cl)C(C)C | -12.6 |
| O=C1c2ccccc2C(=O)C12OC2c1cccc2ccccc12 (stereo not given) | 80.3 |
| Cc1ccc(S(=O)(=O)N2CCCC(C(=O)NCc3ccco3)C2)cc1Cl (stereo not given) | 12.9 |
| O=C(NC(C(=O)O)c1ccccc1)c1ccc(S(=O)(=O)N2CCOCC2)cc1 (stereo not given) | -10.8 |
| COc1ccccc1NC(=O)N1CCC(C(=O)c2ccc(F)cc2)CC1 | -5.37 |
| Cn1c(COc2ccccc2)nnc1SCc1nc2ccccc2[nH]1 | -3.78 |
| Clc1ccc(C2=CSC3=Nc4cccc5cccc(c45)N23)cc1 | 13.3 |
| O=C(O)C1OC(Oc2cc3oc(-c4ccccc4)cc(=O)c3c(O)c2O)C(O)C(O)C1O (stereo not given) | -26.6 |
| COc1ccc2cc(-c3cc(C(=O)OCC(=O)NC4CCS(=O)(=O)C4)c4ccccc4n3)ccc2c1 (stereo not given) | 3.98 |
| CSc1nsc(/C=C/Nc2ccc(Cl)cc2)c1C#N | -6.81 |
| O=C(/C(=C(\[O-])c1ccccc1)[n+]1ccc2ccccc2c1)c1ccccc1 | -13.2 |
| COCCCNC(=O)CCCC(=O)NCCCOC | -17.3 |
| CCO/C=C1/C(=O)N(Cc2ccccc2)C(=O)c2ccccc21 | 49.7 |
| Cc1ccc(N2C(=O)[C@@H]3[C@H](C2=O)C2c4ccccc4C=CN2[C@@H]3C(=O)c2ccco2)c(C)c1 (stereo not given in full) | 20.7 |
| O=C1C(Nc2cccc(O)c2)=C(N2CCCCC2)C(=O)c2ccccc21 | 35.8 |
